From ChEMBL document CHEMBL1151328, “Novel cytotoxic acylated oligorhamnosides from Mezzettia leptopoda” (1998) come the findings set out here.

SMILES strings stand for the structures. Values after ≈ are worked out from the molar mass of the structure shown. Active and inactive are the calls of the source. The calls are words filed in the database; no cut-off is given here.

One assay relates to LNCaP. The experiment in a line: Cytotoxicity against human LNCAP cells. It counts as functional. As to conditions: read-out: ED50 (the source's name).
The test system of assay [1] is KB. The assay is described as follows: Cytotoxicity against human drug-resistant KB cells in absence of vinblastine. As to conditions: read-out: ED50 (the source's name). It counts as functional.
A further assay relates to Col2. The assay is described as follows: Cytotoxicity against human Col2 cells. The following applies: read-out: ED50 (the source's name). It counts as functional.
In assay [2] the test system is KB. The experiment in a line: Cytotoxicity against human drug-resistant KB cells in presence of 1 ug/mL vinblastine. The following applies: read-out: ED50 (the source's name). It counts as functional.
For the next assay, the system named is Lu1. The experiment in a line: Cytotoxicity against human Lu1 cells. It counts as functional. The following applies: read-out: ED50 (the source's name).
In assay [3] the test system is KB. The assay is described as follows: Cytotoxicity against human KB cells. In kind it is functional. The following applies: read-out: ED50 (the source's name).
Assay [4] can be described thus: Cytotoxicity against human BC1 cells. The following applies: read-out: ED50 (the source's name). In kind it is functional.
A further assay concerns ASK. The experiment in a line: Antimitotic activity in rat ASK cells at 100 ug/mL. It counts as functional, cell-based.

For the compound `CCCCCCCCO[C@@H]1O[C@@H](C)[C@H](OC(=O)CCCCC)[C@@H](O[C@@H]2O[C@@H](C)[C@H](OC(C)=O)[C@@H](O[C@@H]3O[C@@H](C)[C@H](O)[C@@H](O)[C@H]3OC(C)=O)[C@H]2OC(C)=O)[C@H]1O` [MEZZETTIASIDE 8], the EC50 was above 20 µg/mL in the assay with LNCaP; above 20 µg/mL in the assay on KB [1]; 8.2 µg/mL (≈ 10.3 µM) in the assay with Col2; above 20 µg/mL with KB [2]; 19.7 µg/mL (≈ 24.8 µM) in the assay with Lu1; above 20 µg/mL with KB [3]. In assay [4], the EC50 was above 20 µg/mL. In addition, the outcome in the assay on ASK was inactive.
As to `CCCCCCCCO[C@@H]1O[C@@H](C)[C@H](OC(=O)CCCCC)[C@@H](O[C@@H]2O[C@@H](C)[C@H](OC(C)=O)[C@@H](O)[C@H]2OC(C)=O)[C@H]1O` [MEZZETTIASIDEIDE 10], the EC50 in the assay on LNCaP, in the assay with KB [1], in the assay with Col2, in the assay with KB [2], with Lu1 and in the assay on KB [3] was above 20 µg/mL in each case. Also, the EC50 in assay [4] was above 20 µg/mL. In addition, in the assay with ASK, the outcome was inactive.
As to `CCCCCCCCO[C@@H]1O[C@@H](C)[C@H](OC(=O)CCCCC)[C@@H](O[C@@H]2O[C@@H](C)[C@H](OC(C)=O)[C@@H](O[C@@H]3O[C@@H](C)[C@H](OC(C)=O)[C@@H](OC(C)=O)[C@H]3O)[C@H]2OC(C)=O)[C@H]1O` [MEZZETTIASIDE 3], the EC50 in the assay with LNCaP was above 20 µg/mL; in the assay on KB [1], above 20 µg/mL; with Col2, 4.9 µg/mL (≈ 5.87 µM); in the assay with KB [2], above 20 µg/mL; in the assay with Lu1, 11.8 µg/mL (≈ 14.1 µM); with KB [3] it was 14.3 µg/mL (≈ 17.1 µM). In addition, in assay [4], the EC50 is above 20 µg/mL. Moreover, the outcome in the assay with ASK was inactive.
Consider `CCCCCCCCO[C@@H]1O[C@@H](C)[C@H](OC(=O)CCCCC)[C@@H](O[C@@H]2O[C@@H](C)[C@H](OC(C)=O)[C@@H](O[C@@H]3O[C@@H](C)[C@H](OC(C)=O)[C@@H](O)[C@H]3OC(C)=O)[C@H]2OC(C)=O)[C@H]1O` [MEZZETTIASIDE 2], for which the EC50 in the assay on LNCaP was above 20 µg/mL; in the assay with KB [1], above 20 µg/mL; in the assay with Col2, 4.3 µg/mL (≈ 5.15 µM); in the assay with KB [2], above 20 µg/mL; in the assay with Lu1, 8.6 µg/mL (≈ 10.3 µM); in the assay with KB [3], 6.2 µg/mL (≈ 7.43 µM). Besides, the EC50 in assay [4] is above 20 µg/mL. Moreover, the outcome in the assay on ASK was inactive.
`CCCCCCCCO[C@@H]1O[C@@H](C)[C@H](OC(=O)CCCCC)[C@@H](O[C@@H]2O[C@@H](C)[C@H](OC(C)=O)[C@@H](OC(C)=O)[C@H]2OC(C)=O)[C@H]1O` [MEZZETTIASIDE 11]: the EC50 with LNCaP was above 20 µg/mL; with KB [1], above 20 µg/mL; in the assay with Col2 it was 9 µg/mL (≈ 13.9 µM); in the assay with KB [2], 5.6 µg/mL; in the assay on Lu1, 6.1 µg/mL (≈ 9.43 µM); in the assay on KB [3], 12.7 µg/mL (≈ 19.6 µM). Besides, in assay [4], the EC50 is above 20 µg/mL. Also, the result in the assay on ASK was inactive.
`CCCCCCCCO[C@@H]1O[C@@H](C)[C@H](OC(=O)CCCCC)[C@@H](O[C@@H]2O[C@@H](C)[C@H](OC(C)=O)[C@@H](O[C@@H]3O[C@@H](C)[C@H](OC(C)=O)[C@@H](O)[C@H]3O)[C@H]2OC(C)=O)[C@H]1O` [MEZZETTIASIDE 4]: the EC50 in the assay on LNCaP was above 20 µg/mL; in the assay on KB [1] it was above 20 µg/mL; with Col2, 6.2 µg/mL (≈ 7.82 µM); in the assay with KB [2], above 20 µg/mL; in the assay on Lu1, 19.4 µg/mL (≈ 24.5 µM); in the assay on KB [3] it was 15.4 µg/mL (≈ 19.4 µM). For the same compound, in assay [4], the EC50 was above 20 µg/mL. Further, in the assay with ASK, the result was inactive.
Consider `CCCCCCCCO[C@@H]1O[C@@H](C)[C@H](OC(=O)CCCCC)[C@@H](O[C@@H]2O[C@@H](C)[C@H](O)[C@@H](OC(C)=O)[C@H]2OC(C)=O)[C@H]1O` [MEZZETTIASIDE 9], for which the EC50 with LNCaP is above 20 µg/mL; in the assay on KB [1], above 20 µg/mL; in the assay on Col2 it was above 20 µg/mL; with KB [2], above 20 µg/mL; in the assay with Lu1, 5.4 µg/mL (≈ 8.93 µM); in the assay with KB [3], 11.3 µg/mL (≈ 18.7 µM). In assay [4], the EC50 is above 20 µg/mL. The result with ASK was inactive.
